Measured values published in ChEMBL document CHEMBL5506003, “Design and biological evaluation of dual tubulin/HDAC inhibitors based on millepachine for treatment of prostate cancer” (Eur J Med Chem, 2024).

Assays:
A549 = assay: Cytotoxicity against human A549 cells incubated for 72 hrs by MTT assay; settings: A549, 72 h
MCF7 = assay: Cytotoxicity against human MCF7 cells incubated for 72 hrs by MTT assay; settings: MCF7, 72 h
MDA-MB-231 = assay: Cytotoxicity against human MDA-MB-231 cells incubated for 72 hrs by MTT assay; assay type: functional, cell-based; settings: MDA-MB-231, 72 h
PC-3 [1] = assay: Cytotoxicity against human PC-3 cells incubated for 72 hrs by MTT assay; settings: PC-3, 72 h
U-251 = assay: Cytotoxicity against human U-251 cells incubated for 72 hrs by MTT assay; settings: U-251, 72 h
Histone deacetylase 2 = Histone deacetylase 2 (Homo sapiens, UniProt Q92769); assay: Inhibition of HDAC2 in human HeLa nuclear extracts incubated for 30 mins by fluorescence based assay; assay type: cell-based
Histone deacetylase 7 = target: T1, Histone deacetylase 7 (Homo sapiens, UniProt Q8WUI4); assay: Inhibition of HDAC7 in human HeLa nuclear extracts incubated for 30 mins by fluorescence based assay; assay type: cell-free
T1 sequence (Q8WUI4 whole entry): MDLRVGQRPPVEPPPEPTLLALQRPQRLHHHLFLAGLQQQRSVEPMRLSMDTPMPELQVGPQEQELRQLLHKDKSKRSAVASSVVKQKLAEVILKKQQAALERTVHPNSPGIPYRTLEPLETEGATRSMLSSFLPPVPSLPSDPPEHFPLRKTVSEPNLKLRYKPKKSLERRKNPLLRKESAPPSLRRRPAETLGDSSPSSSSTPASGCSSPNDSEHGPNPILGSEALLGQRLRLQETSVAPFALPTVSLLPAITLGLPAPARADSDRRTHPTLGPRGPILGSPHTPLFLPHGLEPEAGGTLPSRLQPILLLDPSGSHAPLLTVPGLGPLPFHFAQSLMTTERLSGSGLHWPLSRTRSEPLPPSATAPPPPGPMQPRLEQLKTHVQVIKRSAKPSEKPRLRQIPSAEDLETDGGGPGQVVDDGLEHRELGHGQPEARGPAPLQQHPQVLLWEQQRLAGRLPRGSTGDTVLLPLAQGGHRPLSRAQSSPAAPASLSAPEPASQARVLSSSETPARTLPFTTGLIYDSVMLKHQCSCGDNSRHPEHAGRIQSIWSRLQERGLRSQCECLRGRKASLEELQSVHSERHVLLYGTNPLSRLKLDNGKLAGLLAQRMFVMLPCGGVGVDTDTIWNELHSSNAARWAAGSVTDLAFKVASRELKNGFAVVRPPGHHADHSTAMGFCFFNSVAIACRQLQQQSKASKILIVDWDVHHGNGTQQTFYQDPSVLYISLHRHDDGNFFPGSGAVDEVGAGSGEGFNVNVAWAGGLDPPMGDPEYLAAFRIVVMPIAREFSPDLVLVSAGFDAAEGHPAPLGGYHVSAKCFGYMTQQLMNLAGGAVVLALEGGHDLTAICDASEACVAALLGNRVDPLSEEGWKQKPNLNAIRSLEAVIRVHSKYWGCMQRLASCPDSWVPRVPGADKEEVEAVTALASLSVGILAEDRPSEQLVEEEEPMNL

Histone deacetylase 1 = Histone deacetylase 1 (Homo sapiens, UniProt Q13547); assay: Inhibition of HDAC1 in human HeLa nuclear extracts incubated for 30 mins by fluorescence based assay; assay type: cell-free
[2] = target: T2, Protein deacetylase HDAC6 (Homo sapiens, UniProt Q9UBN7); assay: Inhibition of HDAC6 in human HeLa nuclear extracts incubated for 30 mins by fluorescence based assay; assay type: cell-free
T2 sequence (Q9UBN7 whole entry): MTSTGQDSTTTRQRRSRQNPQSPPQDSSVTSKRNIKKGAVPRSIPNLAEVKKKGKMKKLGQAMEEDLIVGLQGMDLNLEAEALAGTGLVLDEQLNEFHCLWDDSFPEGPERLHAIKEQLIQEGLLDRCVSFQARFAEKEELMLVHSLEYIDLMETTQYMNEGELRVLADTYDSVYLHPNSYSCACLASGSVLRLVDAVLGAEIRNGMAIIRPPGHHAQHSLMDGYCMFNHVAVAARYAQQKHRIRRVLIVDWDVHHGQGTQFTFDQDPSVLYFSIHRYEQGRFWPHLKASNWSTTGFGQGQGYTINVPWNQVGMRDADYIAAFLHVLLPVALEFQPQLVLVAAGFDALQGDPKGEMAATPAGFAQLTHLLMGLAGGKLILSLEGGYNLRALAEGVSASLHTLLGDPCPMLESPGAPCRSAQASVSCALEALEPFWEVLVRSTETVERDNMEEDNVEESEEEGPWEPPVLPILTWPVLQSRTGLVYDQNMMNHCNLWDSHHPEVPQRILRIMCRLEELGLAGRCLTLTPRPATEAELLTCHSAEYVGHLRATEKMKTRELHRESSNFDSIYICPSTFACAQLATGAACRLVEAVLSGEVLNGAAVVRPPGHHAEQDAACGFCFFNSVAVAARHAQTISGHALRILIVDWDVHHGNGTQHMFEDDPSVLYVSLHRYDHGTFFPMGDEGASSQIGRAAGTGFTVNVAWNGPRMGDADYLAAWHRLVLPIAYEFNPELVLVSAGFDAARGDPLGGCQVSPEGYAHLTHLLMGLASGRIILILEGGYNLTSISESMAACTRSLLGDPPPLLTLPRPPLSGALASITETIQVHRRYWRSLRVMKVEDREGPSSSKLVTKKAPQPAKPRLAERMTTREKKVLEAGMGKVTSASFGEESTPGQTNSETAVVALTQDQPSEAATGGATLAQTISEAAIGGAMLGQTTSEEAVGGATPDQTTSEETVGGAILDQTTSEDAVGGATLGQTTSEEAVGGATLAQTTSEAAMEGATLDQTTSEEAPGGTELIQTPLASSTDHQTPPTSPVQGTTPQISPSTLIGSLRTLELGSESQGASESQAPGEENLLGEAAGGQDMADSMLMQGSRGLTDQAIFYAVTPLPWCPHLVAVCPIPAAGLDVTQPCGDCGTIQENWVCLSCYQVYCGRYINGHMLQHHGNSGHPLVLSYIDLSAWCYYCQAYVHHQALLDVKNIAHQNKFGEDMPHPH

PC-3 [3] = assay: Antitumor activity against human PC-3 cells xenografted in BALB/c nude mouse assessed as tumor growth inhibition at 5 mg/kg, iv administered every 2 days and measured after 3 weeks; assay type: functional; settings: PC-3, 504 h, read-out: TGI
[4] = Toxicity in BALB/c nude mouse xenografted with human PC-3 cells assessed as body weight loss at 5 mg/kg, iv administered every 2 days and measured after 3 weeks; assay type: organism-based; settings: in vivo, 504 h
[5] = Toxicity in BALB/c nude mouse xenografted with human PC-3 cells assessed as mortality at 5 mg/kg, iv administered every 2 days and measured after 3 weeks; assay type: organism-based; settings: in vivo, 504 h

Sequence of Histone deacetylase 1 (Q13547 whole entry): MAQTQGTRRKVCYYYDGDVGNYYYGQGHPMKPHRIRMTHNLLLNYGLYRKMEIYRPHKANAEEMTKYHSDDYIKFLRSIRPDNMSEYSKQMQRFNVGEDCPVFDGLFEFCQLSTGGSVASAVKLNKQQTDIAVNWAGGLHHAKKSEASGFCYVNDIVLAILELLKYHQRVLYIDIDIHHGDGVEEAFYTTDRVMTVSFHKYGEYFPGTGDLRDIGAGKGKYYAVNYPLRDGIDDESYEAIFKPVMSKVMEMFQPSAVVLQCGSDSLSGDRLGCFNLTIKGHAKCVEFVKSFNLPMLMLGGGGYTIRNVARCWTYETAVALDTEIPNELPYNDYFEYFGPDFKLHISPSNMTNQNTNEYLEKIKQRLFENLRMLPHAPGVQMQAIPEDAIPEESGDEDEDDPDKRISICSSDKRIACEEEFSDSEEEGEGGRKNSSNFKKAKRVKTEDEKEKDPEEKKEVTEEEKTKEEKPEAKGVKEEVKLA
Sequence of Histone deacetylase 2 (Q92769 whole entry): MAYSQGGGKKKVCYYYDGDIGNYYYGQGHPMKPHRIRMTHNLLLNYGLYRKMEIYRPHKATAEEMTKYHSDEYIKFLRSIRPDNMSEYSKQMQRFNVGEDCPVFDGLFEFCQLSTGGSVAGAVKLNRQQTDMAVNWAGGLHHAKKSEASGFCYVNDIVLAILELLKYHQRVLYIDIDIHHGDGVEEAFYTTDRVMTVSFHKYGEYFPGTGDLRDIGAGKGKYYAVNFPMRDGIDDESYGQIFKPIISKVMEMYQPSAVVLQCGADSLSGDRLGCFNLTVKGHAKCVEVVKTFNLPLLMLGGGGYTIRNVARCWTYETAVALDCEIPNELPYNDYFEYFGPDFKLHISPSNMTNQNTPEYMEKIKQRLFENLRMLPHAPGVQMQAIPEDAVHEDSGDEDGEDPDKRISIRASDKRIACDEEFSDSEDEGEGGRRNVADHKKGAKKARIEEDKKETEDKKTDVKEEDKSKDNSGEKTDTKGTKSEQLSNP

SMILES | IC50 (A549) | IC50 (MCF7) | IC50 (MDA-MB-231) | IC50 (PC-3 [1]) | IC50 (U-251) | IC50 (Histone deacetylase 2) | IC50 (Histone deacetylase 7) | IC50 (Histone deacetylase 1) | IC50 [2] | inhibition in vivo at 5 mg/kg (PC-3 [3]) | Activity [4] | Activity [5]
COc1ccc(/C=C/C(=O)c2ccc(OC)c3c2OC(C)(C)C=C3)cc1NCCCCCC(=O)Nc1ccccc1N | > 10 µM | > 10 µM | > 10 µM | 5.16 µM | > 10 µM |  |  |  |  |  |  | 
COc1ccc(/C=C/C(=O)c2ccc(Br)c3c2OC(C)(C)C=C3)cc1OCC(=O)NO | 1.31 µM | 1.82 µM | 0.47 µM | 0.72 µM | 0.49 µM | 0.83 µM | 5.42 µM | 0.58 µM | 1.21 µM |  |  | 
COc1ccc(/C=C/C(=O)c2ccc(OC)c3c2OC(C)(C)C=C3)cc1NCCCCCCC(=O)Nc1ccccc1N | > 10 µM | > 10 µM | > 10 µM | 6.61 µM | > 10 µM |  |  |  |  |  |  | 
COc1ccc(/C=C/C(=O)c2ccc(OC)c3c2OC(C)(C)C=C3)cc1OCC(=O)Nc1ccccc1N | > 10 µM | 8.72 µM | > 10 µM | > 10 µM | 7.6 µM |  |  |  |  |  |  | 
COc1ccc(/C=C/C(=O)c2ccc(Cl)c3c2OC(C)(C)C=C3)cc1OCC(=O)Nc1ccccc1N | 7.72 µM | 9.14 µM | 3.45 µM | 4.69 µM | 9.23 µM |  |  |  |  |  |  | 
COc1ccc(/C=C/C(=O)c2ccc(OC)c3c2OC(C)(C)C=C3)cc1OCCCCC(=O)Nc1ccccc1N | > 10 µM | 8.49 µM | > 10 µM | 6.44 µM | > 10 µM |  |  |  |  |  |  | 
COc1ccc(/C=C/C(=O)c2ccc(OC)c3c2OC(C)(C)C=C3)cc1OCCCC(=O)Nc1ccccc1N | > 10 µM | 9.47 µM | > 10 µM | > 10 µM | 7.52 µM |  |  |  |  |  |  | 
COc1ccc(/C=C/C(=O)c2ccc(OC)c3c2OC(C)(C)C=C3)cc1OCCCCCC(=O)NO | 6.08 µM | 6.53 µM | > 10 µM | 5.74 µM | > 10 µM |  |  |  |  |  |  | 
COc1ccc(/C=C/C(=O)c2ccc(OC)c3c2OC(C)(C)C=C3)cc1 [MILLEPACHINE] | > 10 µM | 4.37 µM | 2.47 µM | 1.13 µM | 3.72 µM |  |  |  |  |  |  | 
COc1ccc(/C=C/C(=O)c2ccc(OC)c3c2OC(C)(C)C=C3)cc1OCCCC(=O)NO | 5.53 µM | 5.68 µM | 8.71 µM | 6.15 µM | 3.68 µM |  |  |  |  |  |  | 
CC(=O)O[C@H]1C(=O)[C@@]2(C)[C@H]([C@H](OC(=O)c3ccccc3)[C@]3(O)C[C@H](OC(=O)[C@H](O)[C@@H](NC(=O)c4ccccc4)c4ccccc4)C(C)=C1C3(C)C)[C@]1(OC(C)=O)CO[C@@H]1C[C@@H]2O [PACLITAXEL] |  |  |  |  |  |  |  |  |  | 91.3% | Toxic | Toxic
COc1ccc(/C=C/C(=O)c2ccc(Br)c3c2OC(C)(C)C=C3)cc1NCC(=O)NO | 0.8 µM | 0.19 µM | 0.16 µM | 0.032 µM | 0.14 µM | 1.43 µM | 8.3 µM | 0.87 µM | 3.35 µM |  |  | 
COc1ccc(/C=C/C(=O)c2ccc(Cl)c3c2OC(C)(C)C=C3)cc1NCC(=O)Nc1ccccc1N | > 10 µM | 4.77 µM | 3 µM | 2.65 µM | 4.72 µM |  |  |  |  |  |  | 
